What was measured:
[1] = tested on: HN31 squamous carcinoma cells; experiment: Short-term complex viability (RRV, Trypan Blue exclusion and cell concentration) 72 h after treatment; assay type: cell-based, human; conditions: for increase of cancer cell viability with plain (non-conjugated) nanocarriers compared with C225-conjugated carriers: GNP-C225 + PNB; for drug concentration required, drugs administered alone, to bring complex viability of cancer cells to the levels of PNB-enhanced release: no PNB
Procedure: Short term response in vitro to co-localized administration of drug nanocarriers, GNPs and laser pulses. We used EGFR-positive HN31 (cancer) cells and EGFR-negative NOM9 (normal) cells. […] After incubation, GNPs and drug carriers were washed off. […] PNB lifetime was obtained for individual cells. The short-term viability was evaluated 72 hours after the treatment of samples as a complex viability parameter RRV that included the viability level V1 (measured in % with Trypan Blue exclusion test) and the cell concentration C: RRV=C/C0*V1,*100% , where C0 is the cell concentration in the intact sample.
The ability of the PNB mechanism to overcome drug resistance and to reduce non-specific toxicity was evaluated with two common drugs and carrier types. Water-soluble doxorubicin was encapsulated into PEG-coated 90 nm Doxil liposomes that were conjugated with anti-EGFR antibody, C225 (L-Dox-C225). Non-soluble paclitaxel was loaded into 14 nm micelles conjugated to the same antibody (M-Ptx-C225). Each type of drug-loaded nanocarrier was administered separately with gold NP-C225 conjugates. Cancer (HN31) and normal (NOM9) cells were incubated identically with NP-C225 and nanocarriers. Drug doses were reduced to the level that provided relatively high viability of both cell types when treated with nanocarriers alone (without PNBs).
After incubation, NPs and nanocarriers were washed off, the cells were exposed to a single laser pulse (70 ps, 532 nm, 40 mJ cm^−2) and the PNB lifetime was obtained for individual cells. […] The cell concentration and viability were measured at 72 hours after the PNB generation as the complex viability parameter that was normalized by that in intact cells (FIG. 8). […] (FIGS. 8a and 8b).
Short-term therapeutic response to quadrapeutics and other treatments in vitro. […] The radiation treatment was administered within 60 min after PNB generation, i.e. when the intracellular concentration of the released drug was close to the maximal.

HN31 cells = experiment: Clonogenic test (surviving fraction), cancer cells; assay type: cell-based, human; conditions: Dox 2 μg mL^−1 or Ptx 33 ng mL^−1 + GNP 2.4×10^10 mL^−1 + laser 45 mJ cm^−2 + X-rays 4 Gy 6 hours after PNB
NOM9 cells = experiment: Clonogenic test (surviving fraction), normal cells; conditions: quadrapeutics, X-rays 4 Gy 6 hours after PNB
From the text: Evaluation of the long-term therapeutic response with a clonogenic test. We used EGFR-positive HN31 cells and EGFR-negative NOM9 cells. […] Thus the cells were exposed only to the internalized drug during the follow-up generation of PNBs. One to six hours afterwards, a single dose of X-rays (0-25 Gy) was applied.
To evaluate their colony-forming ability, the cells were trypsinized and replaced in 100 mm dishes in a free medium immediately after the treatment of samples. After 10 days of cultivation, the cells were stained with 0.5% crystal violet in absolute ethanol, and colonies with more than 50 cells were counted under a microscope. Plating efficiency was defined as the percentage of cells seeded that grew into colonies under a specific culture condition of a given cell line. […] All experiments were performed three times.

Row | Compound | fold higher concentration required for drug alone vs PNB-enhanced release [1] [fold] | increase of cancer cell viability with plain (non-conjugated) nanocarriers compared with C225-conjugated carriers [1] | drug concentration required, drugs administered alone, to bring complex viability of cancer cells to the levels of PNB-enhanced release [1] [µg/mL] | cancer cell growth (clonogenicity) after quadrapeutics, mode D+PNB+XR6 (HN31 cells) | viability of identically treated normal cells (NOM9 cells)
1 | COc1cccc2c1C(=O)c1c(O)c3c(c(O)c1C2=O)C[C@@](O)(C(=O)CO)C[C@@H]3O[C@H]1C[C@H](N)[C@H](O)[C@H](C)O1 [doxorubicin] | 18 | several-fold | 85 | – | –
2 | CC(=O)O[C@H]1C(=O)[C@@]2(C)[C@H]([C@H](OC(=O)c3ccccc3)[C@]3(O)C[C@H](OC(=O)[C@H](O)[C@@H](NC(=O)c4ccccc4)c4ccccc4)C(C)=C1C3(C)C)[C@]1(OC(C)=O)CO[C@@H]1C[C@@H]2O [paclitaxel] | 15 | several-fold | 1 | strong therapeutic effect | close to that of intact cells
